PubChem BioAssay AID2060327 (Molecular Pharmacology Branch, DTP, NCI, 2025)
Several values for one entry are separate records, joined by “and”; a condition that tells them apart may be missing. Identical values can stand only once.

Tested on: PC-3 multi-cell spheroids, viability
Assay: Anticancer human tumor PC-3 cell line growth inhibition [IpAb];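 note: spheroids exposed to compounds for 7 days before readout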;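 for viability, T/C: 100% = DMSO vehicle control wells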
Details: for viability, T/C: stronger effect = lower value
Method in brief: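 Spheroids of 60% malignant cells, 25% HUVEC and 15% MSC were exposed to targeted agents combined with ipatasertib or abemaciclib. Doses started at or near clinical Cmax (10 microM when unknown) and fell in half-log steps.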

[1] = curve of first compound, second compound 0.1 µM
[2] = curve of first compound, second compound 0.316 µM
[3] = curve of first compound, second compound 1 µM
[4] = curve of first compound, second compound 3.16 µM
[5] = curve of first compound, second compound 10 µM
[6] = second compound 0.1 µM, first compound 0.0316 µM
[7] = second compound 0.1 µM, first compound 0.1 µM
[8] = second compound 0.1 µM, first compound 0.316 µM
[9] = second compound 0.1 µM, first compound 1 µM
[10] = second compound 0.316 µM, first compound 0.0316 µM
[11] = second compound 0.316 µM, first compound 0.1 µM
[12] = second compound 0.316 µM, first compound 0.316 µM
[13] = second compound 0.316 µM, first compound 1 µM
[14] = second compound 1 µM, first compound 0.0316 µM
[15] = second compound 1 µM, first compound 0.1 µM
[16] = second compound 1 µM, first compound 0.316 µM
[17] = second compound 1 µM, first compound 1 µM

For `CC1(C)CCC(CN2CCN(c3ccc(C(=O)NS(=O)(=O)c4ccc(NCC5CCOCC5)c([N+](=O)[O-])c4)c(Oc4cnc5[nH]ccc5c4)c3)CC2)=C(c2ccc(Cl)cc2)C1` + CC(C)NCC(C(=O)N1CCN(c2ncnc3c2C(C)CC3O)CC1)c1ccc(Cl)cc1, the IC50 [1] was 4270 nM, the IC50 [2] was less than 31.6 nM and the IC50 [3] was less than 31.6 nM. It also gave an IC50 [4] of less than 31.6 nM, an IC50 [5] of less than 31.6 nM and a viability, T/C [6] of 69.2%. For the same compound, the viability, T/C [7] was 63.2%, the viability, T/C [8] was 67.6% and the viability, T/C [9] was 63.2%. It also gave a viability, T/C (second compound 0.1 µM, first compound 3.16 µM) of 69%, a viability, T/C (second compound 0.1 µM, first compound 10 µM) of 3.74% and a viability, T/C [10] of 43%. The viability, T/C [11] was 46.8%, the viability, T/C [12] was 42.7% and the viability, T/C [13] was 45.3%. For the same compound, the viability, T/C (second compound 0.316 µM, first compound 3.16 µM) was 35.7%, the viability, T/C (second compound 0.316 µM, first compound 10 µM) was 3.22% and the viability, T/C [14] was 22%. The viability, T/C [15] was 20.5%, the viability, T/C [16] was 22.4% and the viability, T/C [17] was 19%. For the same compound, the viability, T/C (second compound 1 µM, first compound 3.16 µM) was 15.8%, the viability, T/C (second compound 1 µM, first compound 10 µM) was 3.59% and the viability, T/C (second compound 3.16 µM, first compound 0.0316 µM) was 14.5%. It also gave a viability, T/C (second compound 3.16 µM, first compound 0.1 µM) of 15.3%, a viability, T/C (second compound 3.16 µM, first compound 0.316 µM) of 12.4% and a viability, T/C (second compound 3.16 µM, first compound 1 µM) of 13.4%. The viability, T/C (second compound 3.16 µM, first compound 3.16 µM) was 12.7%, the viability, T/C (second compound 3.16 µM, first compound 10 µM) was 3.12% and the viability, T/C (second compound 10 µM, first compound 0.0316 µM) was 13.7%. The viability, T/C (second compound 10 µM, first compound 0.1 µM) was 12.7%, the viability, T/C (second compound 10 µM, first compound 0.316 µM) was 14.1% and the viability, T/C (second compound 10 µM, first compound 1 µM) was 11.5%. The viability, T/C (second compound 10 µM, first compound 3.16 µM) was 10.7% and the viability, T/C (second compound 10 µM, first compound 10 µM) was 0.81%.
`CC(=O)c1c(C)c2cnc(Nc3ccc(N4CCNCC4)cn3)nc2n(C2CCCC2)c1=O` + CC(C)NCC(C(=O)N1CCN(c2ncnc3c2C(C)CC3O)CC1)c1ccc(Cl)cc1 gave an IC50 [1] greater than 300 nM, an IC50 [2] of less than 0.949 nM and an IC50 [3] of less than 0.949 nM. The IC50 [4] was less than 0.949 nM, the IC50 [5] was less than 0.949 nM and the viability, T/C (second compound 0.1 µM, first compound 0.000949 µM) was 74.1%. The viability, T/C (second compound 0.1 µM, first compound 0.003 µM) was 63.7%, the viability, T/C (second compound 0.1 µM, first compound 0.00949 µM) was 51% and the viability, T/C (second compound 0.1 µM, first compound 0.03 µM) was 51.6%. For the same compound, the viability, T/C (second compound 0.1 µM, first compound 0.0949 µM) was 52.9%, the viability, T/C (second compound 0.1 µM, first compound 0.3 µM) was 48.2% and the viability, T/C (second compound 0.316 µM, first compound 0.000949 µM) was 44.5%. It also gave a viability, T/C (second compound 0.316 µM, first compound 0.003 µM) of 43.3%, a viability, T/C (second compound 0.316 µM, first compound 0.00949 µM) of 43.8% and a viability, T/C (second compound 0.316 µM, first compound 0.03 µM) of 40.1%. For the same compound, the viability, T/C (second compound 0.316 µM, first compound 0.0949 µM) was 33.8%, the viability, T/C (second compound 0.316 µM, first compound 0.3 µM) was 30.7% and the viability, T/C (second compound 1 µM, first compound 0.000949 µM) was 26.3%. It also gave a viability, T/C (second compound 1 µM, first compound 0.003 µM) of 23.8%, a viability, T/C (second compound 1 µM, first compound 0.00949 µM) of 19.6% and a viability, T/C (second compound 1 µM, first compound 0.03 µM) of 17.2%. The viability, T/C (second compound 1 µM, first compound 0.0949 µM) was 15.8%, the viability, T/C (second compound 1 µM, first compound 0.3 µM) was 14.8% and the viability, T/C (second compound 3.16 µM, first compound 0.000949 µM) was 15.3%. For the same compound, the viability, T/C (second compound 3.16 µM, first compound 0.003 µM) was 14.2%, the viability, T/C (second compound 3.16 µM, first compound 0.00949 µM) was 14.2% and the viability, T/C (second compound 3.16 µM, first compound 0.03 µM) was 13.3%. For the same compound, the viability, T/C (second compound 3.16 µM, first compound 0.0949 µM) was 11.3%, the viability, T/C (second compound 3.16 µM, first compound 0.3 µM) was 10.7% and the viability, T/C (second compound 10 µM, first compound 0.000949 µM) was 13.5%. The viability, T/C (second compound 10 µM, first compound 0.003 µM) was 12.9%, the viability, T/C (second compound 10 µM, first compound 0.00949 µM) was 12.5% and the viability, T/C (second compound 10 µM, first compound 0.03 µM) was 11.6%. For the same compound, the viability, T/C (second compound 10 µM, first compound 0.0949 µM) was 11.5% and the viability, T/C (second compound 10 µM, first compound 0.3 µM) was 10.8%.
`CC(C)(C)c1cnc(CSc2cnc(NC(=O)C3CCNCC3)s2)o1` was tested, and the viability, T/C (compound 0.00949 µM) was 100% and 112%, the viability, T/C (compound 0.03 µM) was 119% and 114% and the viability, T/C (compound 0.0949 µM) was 108% and 120%. For the same compound, the viability, T/C (compound 0.3 µM) was 16.7% and 4.98%, the viability, T/C (compound 0.949 µM) was 6.38% and 6.26% and the viability, T/C (compound 3 µM) was 6.95% and 7.36%. The IC50 (curve of compound) was 197 nM and 189 nM.
For `COc1c(OCCCN2CCOCC2)ccc2c3n(c(=NC(=O)c4cnc(N)nc4)nc12)CCN3` + CCN1CCN(Cc2ccc(Nc3ncc(F)c(-c4cc(F)c5nc(C)n(C(C)C)c5c4)n3)nc2)CC1, the IC50 (curve of first compound, second compound 0.01 µM) was 94.5 nM, the IC50 (curve of first compound, second compound 0.0316 µM) was 90.8 nM and the IC50 [1] was 86.5 nM. For the same compound, the IC50 [2] was 78.3 nM, the IC50 [3] was 80.6 nM and the viability, T/C (second compound 0.01 µM, first compound 0.00316 µM) was 89.5%. For the same compound, the viability, T/C (second compound 0.01 µM, first compound 0.01 µM) was 99.3%, the viability, T/C (second compound 0.01 µM, first compound 0.0316 µM) was 140% and the viability, T/C (second compound 0.01 µM, first compound 0.1 µM) was 47%. For the same compound, the viability, T/C (second compound 0.01 µM, first compound 0.316 µM) was 13.3%, the viability, T/C (second compound 0.01 µM, first compound 1 µM) was 8.39% and the viability, T/C (second compound 0.0316 µM, first compound 0.00316 µM) was 109%. It also gave a viability, T/C (second compound 0.0316 µM, first compound 0.01 µM) of 121%, a viability, T/C (second compound 0.0316 µM, first compound 0.0316 µM) of 142% and a viability, T/C (second compound 0.0316 µM, first compound 0.1 µM) of 43.2%. It also gave a viability, T/C (second compound 0.0316 µM, first compound 0.316 µM) of 11%, a viability, T/C (second compound 0.0316 µM, first compound 1 µM) of 8.82% and a viability, T/C (second compound 0.1 µM, first compound 0.00316 µM) of 156%. The viability, T/C (second compound 0.1 µM, first compound 0.01 µM) was 161%, the viability, T/C [6] was 140% and the viability, T/C [7] was 37%. For the same compound, the viability, T/C [8] was 12.8%, the viability, T/C [9] was 9.54% and the viability, T/C (second compound 0.316 µM, first compound 0.00316 µM) was 174%. It also gave a viability, T/C (second compound 0.316 µM, first compound 0.01 µM) of 170%, a viability, T/C [10] of 111% and a viability, T/C [11] of 34.5%. For the same compound, the viability, T/C [12] was 14.8%, the viability, T/C [13] was 13.3% and the viability, T/C (second compound 1 µM, first compound 0.00316 µM) was 173%. For the same compound, the viability, T/C (second compound 1 µM, first compound 0.01 µM) was 171%, the viability, T/C [14] was 104% and the viability, T/C [15] was 40.4%. For the same compound, the viability, T/C [16] was 25% and the viability, T/C [17] was 28.6%.
